{"source": "patent US20170266323A1", "about": "“NEAR-INFRARED-II FLUORESCENT AGENTS, METHODS OF MAKING NEAR-INFRARED-II FLUORESCENT AGENTS, AND METHODS OF USING WATER-SOLUBLE NIR-II FLUORESCENT AGENTS” (The Board of Trustees of the Leland Stanford Junior …, priority 2013, published 2017)", "origin": "cited, not measured here", "key": {"[1]": {"conditions": "in DCM, rhodamine B in ethanol as reference, reported by one study"}}, "data": [{"smiles": "ClC1=C(C=Cc2cc(-c3ccccc3)[s+]c(-c3ccccc3)c2)CCCC1=CC=C1C=C(c2ccccc2)SC(c2ccccc2)=C1.F[B-](F)(F)F", "note": "[IR-1061, 4-[2-[2-Chloro-3-[(2,6-diphenyl-4H-thiopyran-4-ylidene)ethylidene]-1-cyclohexen-1-yl]ethenyl]-2,6-diphenylthiopyrylium tetrafluoroborate]", "values": [{"measurement": "fluorescence quantum efficiency", "setting": "[1]", "value": "~1.7±0.5", "unit": "%"}, {"measurement": "solubility in water", "value": "water insoluble"}]}]}
